Assays:
Assay in all cases: Eurofins kinase selectivity profile against 380 other human recombinant kinases (Table S2)
Type in all cases: biochemical
[1] = target: T1, 380 human recombinant protein kinases (Homo sapiens, UniProt Q7L7X3); details: TAO1(h), read-out: Inhibition rate (%)
T1 construct: purchased Eurofins (Celle Lévescault)
T1 sequence (Q7L7X3 1-1001): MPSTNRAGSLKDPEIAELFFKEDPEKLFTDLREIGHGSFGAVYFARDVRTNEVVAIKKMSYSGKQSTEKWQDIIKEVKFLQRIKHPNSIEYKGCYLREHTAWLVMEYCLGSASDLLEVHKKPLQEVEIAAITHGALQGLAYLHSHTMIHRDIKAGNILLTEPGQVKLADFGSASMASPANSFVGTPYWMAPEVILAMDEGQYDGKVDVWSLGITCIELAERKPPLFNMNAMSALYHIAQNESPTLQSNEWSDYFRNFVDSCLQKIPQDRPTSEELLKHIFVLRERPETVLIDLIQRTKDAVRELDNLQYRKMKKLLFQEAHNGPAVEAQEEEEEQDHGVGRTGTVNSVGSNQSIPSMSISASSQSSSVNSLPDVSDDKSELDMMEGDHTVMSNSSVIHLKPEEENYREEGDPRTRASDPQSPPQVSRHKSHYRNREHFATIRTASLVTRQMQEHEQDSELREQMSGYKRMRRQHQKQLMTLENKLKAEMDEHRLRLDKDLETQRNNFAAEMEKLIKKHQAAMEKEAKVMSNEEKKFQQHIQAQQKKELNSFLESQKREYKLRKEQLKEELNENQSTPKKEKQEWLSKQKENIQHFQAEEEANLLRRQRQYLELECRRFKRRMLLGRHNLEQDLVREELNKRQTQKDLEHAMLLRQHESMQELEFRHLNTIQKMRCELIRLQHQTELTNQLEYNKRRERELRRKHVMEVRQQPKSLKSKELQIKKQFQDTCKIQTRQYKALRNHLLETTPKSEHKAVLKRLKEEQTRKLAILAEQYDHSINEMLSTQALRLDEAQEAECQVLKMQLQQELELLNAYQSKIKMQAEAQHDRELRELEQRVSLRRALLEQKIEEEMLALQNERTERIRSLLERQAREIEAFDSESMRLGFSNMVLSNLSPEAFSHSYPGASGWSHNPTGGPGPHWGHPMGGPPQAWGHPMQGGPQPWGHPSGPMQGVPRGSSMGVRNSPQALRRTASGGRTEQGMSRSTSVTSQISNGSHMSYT
How it was run: (§1)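 Values come from a contract kinase-profiling service that tested the compound at multiple concentrations across 380 recombinant human kinases, as an off-target check against the MK2 activity.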

[2] = target: T2, 380 human recombinant protein kinases (Homo sapiens, UniProt Q8TD19); details: NEK9(h), read-out: Inhibition rate
T2 construct: purchased Eurofins (Celle Lévescault)
T2 sequence (Q8TD19 1-979): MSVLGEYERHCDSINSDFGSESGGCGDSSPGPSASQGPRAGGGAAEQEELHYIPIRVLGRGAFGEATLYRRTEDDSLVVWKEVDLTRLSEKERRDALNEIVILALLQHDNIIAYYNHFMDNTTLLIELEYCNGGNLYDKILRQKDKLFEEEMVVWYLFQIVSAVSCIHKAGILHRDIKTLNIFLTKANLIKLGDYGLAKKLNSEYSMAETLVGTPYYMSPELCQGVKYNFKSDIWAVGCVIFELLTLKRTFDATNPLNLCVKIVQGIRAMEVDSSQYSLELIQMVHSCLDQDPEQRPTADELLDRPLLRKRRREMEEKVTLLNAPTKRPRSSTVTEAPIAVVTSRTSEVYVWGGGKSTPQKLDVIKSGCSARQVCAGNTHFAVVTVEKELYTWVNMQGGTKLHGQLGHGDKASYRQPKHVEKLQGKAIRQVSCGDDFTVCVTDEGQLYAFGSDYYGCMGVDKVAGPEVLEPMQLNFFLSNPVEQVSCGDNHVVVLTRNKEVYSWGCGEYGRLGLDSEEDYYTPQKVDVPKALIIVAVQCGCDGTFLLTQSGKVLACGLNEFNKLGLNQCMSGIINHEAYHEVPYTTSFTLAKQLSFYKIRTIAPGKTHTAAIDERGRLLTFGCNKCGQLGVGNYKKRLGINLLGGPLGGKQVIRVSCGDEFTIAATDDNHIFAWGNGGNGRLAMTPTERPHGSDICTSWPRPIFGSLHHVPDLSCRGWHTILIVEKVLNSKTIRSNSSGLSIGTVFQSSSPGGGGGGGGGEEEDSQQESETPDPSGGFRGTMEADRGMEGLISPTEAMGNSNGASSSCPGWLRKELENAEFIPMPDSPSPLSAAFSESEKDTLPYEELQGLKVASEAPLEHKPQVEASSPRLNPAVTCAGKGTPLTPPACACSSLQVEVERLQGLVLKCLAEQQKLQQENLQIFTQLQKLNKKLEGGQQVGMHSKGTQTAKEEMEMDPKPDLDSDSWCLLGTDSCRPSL
How it was run: as §1

[3] = target: T3, 380 human recombinant protein kinases (Homo sapiens, UniProt P14616); details: IRR(h), read-out: Inhibition rate
T3 construct: purchased Eurofins (Celle Lévescault)
How it was run: as §1

[4] = target: T4, 380 human recombinant protein kinases (Homo sapiens, UniProt O60674); details: JAK2(h), read-out: Inhibition rate
T4 construct: purchased Eurofins (Celle Lévescault)
How it was run: as §1

T4 sequence (O60674 whole entry): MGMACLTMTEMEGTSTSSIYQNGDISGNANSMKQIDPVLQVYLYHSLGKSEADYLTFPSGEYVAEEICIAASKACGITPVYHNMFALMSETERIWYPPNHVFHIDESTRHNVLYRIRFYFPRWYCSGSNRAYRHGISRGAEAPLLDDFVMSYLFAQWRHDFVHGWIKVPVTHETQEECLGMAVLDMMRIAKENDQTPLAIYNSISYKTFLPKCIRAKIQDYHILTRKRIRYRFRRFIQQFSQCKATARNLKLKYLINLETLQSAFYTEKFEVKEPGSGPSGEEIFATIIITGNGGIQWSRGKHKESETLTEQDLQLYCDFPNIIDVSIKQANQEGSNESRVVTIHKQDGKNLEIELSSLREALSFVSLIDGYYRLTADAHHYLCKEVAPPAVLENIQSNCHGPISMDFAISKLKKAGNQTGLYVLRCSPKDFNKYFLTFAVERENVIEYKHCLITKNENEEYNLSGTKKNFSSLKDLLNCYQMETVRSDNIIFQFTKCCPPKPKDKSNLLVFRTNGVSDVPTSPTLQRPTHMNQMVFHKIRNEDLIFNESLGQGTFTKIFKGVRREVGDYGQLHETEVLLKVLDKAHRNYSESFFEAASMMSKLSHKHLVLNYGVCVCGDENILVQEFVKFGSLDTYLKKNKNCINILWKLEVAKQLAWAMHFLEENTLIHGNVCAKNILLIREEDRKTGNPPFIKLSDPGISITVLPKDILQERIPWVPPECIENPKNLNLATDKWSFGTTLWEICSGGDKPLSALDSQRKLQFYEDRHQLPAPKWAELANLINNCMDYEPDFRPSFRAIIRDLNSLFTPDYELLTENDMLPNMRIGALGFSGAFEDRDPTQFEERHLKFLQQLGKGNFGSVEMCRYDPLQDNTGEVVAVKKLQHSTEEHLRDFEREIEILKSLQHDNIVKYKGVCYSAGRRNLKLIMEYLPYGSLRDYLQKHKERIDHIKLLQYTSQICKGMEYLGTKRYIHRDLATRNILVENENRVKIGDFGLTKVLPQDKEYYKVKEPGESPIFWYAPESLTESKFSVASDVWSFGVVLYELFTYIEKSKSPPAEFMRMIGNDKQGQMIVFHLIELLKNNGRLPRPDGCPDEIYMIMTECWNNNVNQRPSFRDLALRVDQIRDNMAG
T3 sequence (P14616 27-1297): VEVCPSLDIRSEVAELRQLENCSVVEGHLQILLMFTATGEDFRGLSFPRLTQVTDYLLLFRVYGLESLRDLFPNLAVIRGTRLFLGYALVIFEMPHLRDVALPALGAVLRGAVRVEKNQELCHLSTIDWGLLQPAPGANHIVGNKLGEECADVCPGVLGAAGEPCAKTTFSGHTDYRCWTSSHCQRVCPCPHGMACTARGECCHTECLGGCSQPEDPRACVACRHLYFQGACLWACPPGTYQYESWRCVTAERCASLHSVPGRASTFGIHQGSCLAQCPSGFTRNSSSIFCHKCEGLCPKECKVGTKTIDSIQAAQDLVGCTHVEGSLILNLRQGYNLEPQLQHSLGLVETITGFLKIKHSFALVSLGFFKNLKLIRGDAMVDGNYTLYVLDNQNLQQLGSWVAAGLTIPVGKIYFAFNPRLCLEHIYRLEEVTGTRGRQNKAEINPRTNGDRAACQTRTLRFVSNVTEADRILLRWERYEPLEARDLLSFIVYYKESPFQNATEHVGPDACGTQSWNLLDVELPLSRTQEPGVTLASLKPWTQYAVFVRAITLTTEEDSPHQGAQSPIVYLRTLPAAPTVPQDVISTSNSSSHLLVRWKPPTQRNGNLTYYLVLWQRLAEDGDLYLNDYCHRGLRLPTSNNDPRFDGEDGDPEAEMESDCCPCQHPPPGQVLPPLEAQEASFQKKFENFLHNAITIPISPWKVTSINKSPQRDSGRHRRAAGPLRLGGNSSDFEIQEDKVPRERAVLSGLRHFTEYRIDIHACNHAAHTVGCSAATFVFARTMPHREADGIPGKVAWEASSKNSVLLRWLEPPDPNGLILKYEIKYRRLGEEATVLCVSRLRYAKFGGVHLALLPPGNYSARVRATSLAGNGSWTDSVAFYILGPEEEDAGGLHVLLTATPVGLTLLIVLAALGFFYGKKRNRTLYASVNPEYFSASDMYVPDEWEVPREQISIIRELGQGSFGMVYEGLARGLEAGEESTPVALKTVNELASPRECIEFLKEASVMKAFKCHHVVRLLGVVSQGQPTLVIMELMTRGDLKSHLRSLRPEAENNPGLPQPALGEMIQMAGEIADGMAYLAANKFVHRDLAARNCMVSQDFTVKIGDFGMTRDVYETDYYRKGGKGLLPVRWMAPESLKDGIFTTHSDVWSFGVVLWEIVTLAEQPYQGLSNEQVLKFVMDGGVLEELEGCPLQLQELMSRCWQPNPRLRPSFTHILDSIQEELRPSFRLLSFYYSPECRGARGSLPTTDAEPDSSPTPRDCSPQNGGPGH

Work on `C=CC(=O)Nc1cc(-c2cc(-c3cc4c([nH]3)CCNC4=O)ccn2)ccc1OC(F)(F)F` [compound 11] yielded an inhibition at 0.01 µM ([1]; 10 nM) of 3%, an inhibition at 0.1 µM ([1]; 100 nM) of 6% and an inhibition at 1 µM ([1]; 1000 nM) of 11%. The inhibition at 0.01 µM ([2]; 10 nM) was -2%, the inhibition at 0.1 µM ([2]; 100 nM) was -6% and the inhibition at 1 µM ([2]; 1000 nM) was 1%. It also gave an inhibition at 0.01 µM ([3]; 10 nM) of 10%, an inhibition at 0.1 µM ([3]; 100 nM) of 33% and an inhibition at 1 µM ([3]; 1000 nM) of 61%. It also gave an inhibition at 0.01 µM ([4]; 10 nM) of -6%, an inhibition at 0.1 µM ([4]; 100 nM) of -10% and an inhibition at 1 µM ([4]; 1000 nM) of -8%.

— article PMC11233931, “Remodeling tumor‐associated macrophage for anti‐cancer effects by rational design of irreversible inhibition of mitogen‐activated protein kinase‐activated protein kinase 2” (MedComm, 2024)
